From US20230391845A1, “GLP-1, GIP AND GLUCAGON RECEPTOR TRIPLE AGONISTS” (priority 2020, published 2023)
*1 amine or outer side, *2 acyl side, *3 side chain or, on linkers, in order; H or OH if unused. Where a SMILES comes first, the peptide text is derived from it. Side-chain parts run from the residue outwards. [ ]: non-standard residue; d: D form. The star is where a group is joined. C20 diacid = O=C(O)CCCCCCCCCCCCCCCCCCC(=O)*; C18 diacid = O=C(O)CCCCCCCCCCCCCCCCC(=O)*; γGlu = O=C(O)[C@H](CCC(=O)[*:2])N[*:1]; εLys = N[C@@H](CCCCN[*:1])C(=O)[*:2]; Palmitoyl = CCCCCCCCCCCCCCCC(=O)*; Aib = CC(C)(N)C(=O)O

Each compound was assayed against T1, human GIP receptor (Homo sapiens, UniProt P48546) (assay: In vitro functional potency (CRE luciferase; whole cells), human GIPR). Conditions: BHK CRE luc2P hGIPR whole cells; Table 1, position of substituent varied; read-out: hGIPR CRE Luc EC50.
T1 construct: expressed in transfected cells; host or cells: BHK cells (parent line BHKTS13) containing CRE luciferase
T1 sequence (P48546 22-466): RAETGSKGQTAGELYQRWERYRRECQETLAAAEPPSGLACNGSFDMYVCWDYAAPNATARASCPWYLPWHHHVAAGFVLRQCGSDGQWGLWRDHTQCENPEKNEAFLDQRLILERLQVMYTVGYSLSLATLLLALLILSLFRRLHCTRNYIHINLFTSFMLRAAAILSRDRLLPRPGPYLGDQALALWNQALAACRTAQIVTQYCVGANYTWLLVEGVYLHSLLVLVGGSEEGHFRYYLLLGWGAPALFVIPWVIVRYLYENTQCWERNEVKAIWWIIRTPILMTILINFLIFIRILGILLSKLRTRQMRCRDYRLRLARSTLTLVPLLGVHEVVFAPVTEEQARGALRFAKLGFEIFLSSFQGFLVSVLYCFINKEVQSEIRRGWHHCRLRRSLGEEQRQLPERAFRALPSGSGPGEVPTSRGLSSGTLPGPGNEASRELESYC
Assay type: cell-based
Protocol: The purpose of this example is to test the functional activity, or potency, of the compounds in vitro at the human and mouse GLP-1, GIP, and Gcg receptors. The in vitro functional potency is the measure of target receptor activation in a whole cell assay.
In vitro functional potency was determined by measuring the response of the target receptor in a reporter gene assay in individual cell lines. The assay was performed in stably transfected BHK cell lines that expresses one of the following G-protein coupled receptors: human GLP-1 receptor, human GIP receptor, human Gcg receptor, mouse GLP-1 receptor, mouse GIP receptor, or mouse Gcg receptor; and where each cell line contains the DNA for the cAMP response element (CRE) coupled to a promoter and the gene for firefly luciferase (CRE luciferase). When the respective receptor is activated, it results in the production of cAMP, which in turn results in expression of the luciferase protein. When assay incubation is completed, luciferase substrate (luciferin) is added resulting in the enzymatic conversion of luciferin to oxyluciferin and producing bioluminescence. The luminescence is measured as the readout for the assay.
The cells lines used in these assays were BHK cells with BHKTS13 as a parent cell line. The cell lines were derived from a clone containing the CRE luciferase element and were established by further transfection with the respective receptor to obtain the relevant cell line.
The cells were cultured at 37° C. with 5% CO2 in Cell Culture Medium. They were aliquoted and stored in liquid nitrogen. The cells were kept in continuous culture and were seeded out the day before each assay.
GLP-1R and GcgR Cell Culture Medium consisted of DMEM medium with 10% FBS, 500 µg/mL G418, and 300 µg/mL hygromycin. GIPR Cell Culture Medium consisted of DMEM medium with 10% FBS, 400 µg/mL G418, and 300 µg/mL hygromycin. Assay Buffer consisted of DMEM w/o phenol red, 10 mM Hepes, 1× Glutamax, 1% ovalbumin, and 0.1% Pluronic F-68.
• 1) Cells were plated at 5000 cells/well and incubated overnight in the assay plate. • 2) Cells were washed once in DPBS. • 3) Stocks of the test compounds and reference compounds in concentrations ranging from 100-300 pM were diluted 1:150 in Assay Buffer.
The data from the microtiter plate reader was first regressed in an Excel in order to calculate the x-axis, log scale concentrations based on the individual test compound's stock concentration and the dilutions of the assay. […] The software performs a non-linear regression (log(agonist) vs response). A minimum of two replicates was measured for each sample. The reported values are averages of the replicates.
Work on `CCCCCCCCCCCCCCCC(=O)NCCCC[C@H](NC(=O)[C@H](CO)NC(=O)[C@@H]1CCCN1C(=O)[C@@H]1CCCN1C(=O)[C@@H]1CCCN1C(=O)[C@H](C)NC(=O)CNC(=O)[C@H](CO)NC(=O)[C@H](CO)NC(=O)[C@@H]1CCCN1C(=O)CNC(=O)CNC(=O)[C@H](C)NC(=O)[C@H](CC(C)C)NC(=O)[C@H](CC(C)C)NC(=O)[C@H](Cc1c[nH]c2ccccc12)NC(=O)[C@H](CC(N)=O)NC(=O)[C@@H](NC(=O)[C@H](Cc1ccccc1)NC(=O)[C@H](CCC(=O)O)NC(=O)C(C)(C)NC(=O)[C@H](C)NC(=O)[C@H](C)NC(=O)[C@H](CCC(N)=O)NC(=O)[C@H](CCCCN)NC(=O)[C@H](CC(=O)O)NC(=O)[C@H](CC(C)C)NC(=O)[C@H](Cc1ccc(O)cc1)NC(=O)[C@@H](NC(=O)[C@H](CO)NC(=O)[C@H](Cc1ccc(O)cc1)NC(=O)[C@H](CC(=O)O)NC(=O)[C@H](CO)NC(=O)[C@@H](NC(=O)[C@H](Cc1ccccc1)NC(=O)[C@@H](NC(=O)CNC(=O)[C@H](CCC(N)=O)NC(=O)C(C)(C)NC(=O)[C@@H](N)Cc1ccc(O)cc1)[C@@H](C)O)[C@@H](C)O)[C@@H](C)CC)C(C)C)C(N)=O` [Compound No. 58, reference compound] (H-Y[Aib]QGTFTSDYSIYLDKQAA[Aib]EFVNWLLAGGPSSGAPPPSK(Palmitoyl)-NH2; N-terminus assumed) yielded an EC50 of 7.2 pM.

Same assay, conditions: BHK CRE luc2P hGIPR whole cells; Table 2; read-out: hGIPR CRE Luc EC50
`CC[C@H](C)[C@H](NC(=O)[C@H](CO)NC(=O)[C@H](Cc1ccc(O)cc1)NC(=O)[C@H](CC(=O)O)NC(=O)[C@H](CO)NC(=O)[C@@H](NC(=O)[C@H](Cc1ccccc1)NC(=O)[C@@H](NC(=O)CNC(=O)[C@H](Cc1c[nH]cn1)NC(=O)C(C)(C)NC(=O)[C@@H](N)Cc1c[nH]cn1)[C@@H](C)O)[C@@H](C)O)C(=O)N[C@@H](Cc1ccc(O)cc1)C(=O)N[C@@H](CC(C)C)C(=O)N[C@@H](CC(=O)O)C(=O)N[C@@H](CCCCNC(=O)[C@@H](N)CCCCNC(=O)[C@@H](N)CCCCNC(=O)CC[C@H](NC(=O)CCCCCCCCCCCCCCCCCCC(=O)O)C(=O)O)C(=O)N[C@@H](CCC(N)=O)C(=O)N[C@@H](C)C(=O)N[C@@H](C)C(=O)NC(C)(C)C(=O)N[C@@H](CCC(=O)O)C(=O)N[C@@H](Cc1ccccc1)C(=O)N[C@H](C(=O)N[C@@H](CCC(N)=O)C(=O)N[C@@H](Cc1c[nH]c2ccccc12)C(=O)N[C@@H](CC(C)C)C(=O)N[C@@H](CC(C)C)C(=O)N[C@@H](CCC(=O)O)C(=O)NCC(=O)NCC(=O)N1CCC[C@H]1C(=O)N[C@@H](CO)C(=O)N[C@@H](CO)C(=O)NCC(=O)N[C@@H](C)C(=O)N1CCC[C@H]1C(=O)N1CCC[C@H]1C(=O)N1CCC[C@H]1C(=O)N[C@@H](CO)C(N)=O)C(C)C` [Compound No. 28] (H-H[Aib]HGTFTSDYSIYLDK([εLys-εLys-γGlu-C20 diacid])QAA[Aib]EFVQWLLEGGPSSGAPPPS-NH2) was tested, and the EC50 was 7.7 pM.
`CC[C@H](C)[C@H](NC(=O)[C@H](CO)NC(=O)[C@H](Cc1ccc(O)cc1)NC(=O)[C@H](CC(=O)O)NC(=O)[C@H](CO)NC(=O)[C@@H](NC(=O)[C@H](Cc1ccccc1)NC(=O)[C@@H](NC(=O)CNC(=O)[C@H](Cc1c[nH]cn1)NC(=O)C(C)(C)NC(=O)[C@@H](N)Cc1c[nH]cn1)[C@@H](C)O)[C@@H](C)O)C(=O)N[C@@H](CC(C)C)C(=O)N[C@@H](CC(C)C)C(=O)N[C@@H](CCC(=O)O)C(=O)N[C@@H](CCCCNC(=O)[C@@H](N)CCCCNC(=O)[C@@H](N)CCCCNC(=O)CC[C@H](NC(=O)CCCCCCCCCCCCCCCCCCC(=O)O)C(=O)O)C(=O)N[C@@H](CCC(N)=O)C(=O)N[C@@H](C)C(=O)N[C@@H](C)C(=O)N[C@@H](CCC(N)=O)C(=O)N[C@@H](CCC(=O)O)C(=O)N[C@@H](Cc1ccccc1)C(=O)N[C@H](C(=O)N[C@@H](CCC(N)=O)C(=O)N[C@@H](Cc1c[nH]c2ccccc12)C(=O)N[C@@H](CC(C)C)C(=O)N[C@@H](CC(C)C)C(=O)N[C@@H](CCC(=O)O)C(=O)NCC(=O)NCC(=O)N1CCC[C@H]1C(=O)N[C@@H](CO)C(=O)N[C@@H](CO)C(=O)NCC(=O)N[C@@H](C)C(=O)N1CCC[C@H]1C(=O)N1CCC[C@H]1C(=O)N1CCC[C@H]1C(=O)N[C@@H](CO)C(=O)O)C(C)C` [Compound No. 53] (H-H[Aib]HGTFTSDYSILLEK([εLys-εLys-γGlu-C20 diacid])QAAQEFVQWLLEGGPSSGAPPPS-OH) gave an EC50 of 4.8 pM.
`CC[C@H](C)[C@H](NC(=O)[C@H](CO)NC(=O)[C@H](Cc1ccc(O)cc1)NC(=O)[C@H](CC(=O)O)NC(=O)[C@H](CO)NC(=O)[C@@H](NC(=O)[C@H](Cc1ccccc1)NC(=O)[C@@H](NC(=O)CNC(=O)[C@H](Cc1c[nH]cn1)NC(=O)C(C)(C)NC(=O)[C@@H](N)Cc1ccc(O)cc1)[C@@H](C)O)[C@@H](C)O)C(=O)N[C@@H](Cc1ccc(O)cc1)C(=O)N[C@@H](CC(C)C)C(=O)N[C@@H](CCC(=O)O)C(=O)N[C@@H](CCCCNC(=O)[C@@H](N)CCCCNC(=O)[C@@H](N)CCCCNC(=O)CC[C@H](NC(=O)CCCCCCCCCCCCCCCCCCC(=O)O)C(=O)O)C(=O)N[C@@H](CCC(N)=O)C(=O)N[C@@H](C)C(=O)N[C@@H](C)C(=O)NC(C)(C)C(=O)N[C@@H](CCC(=O)O)C(=O)N[C@@H](Cc1ccccc1)C(=O)N[C@H](C(=O)N[C@@H](CCC(N)=O)C(=O)N[C@@H](Cc1c[nH]c2ccccc12)C(=O)N[C@@H](CC(C)C)C(=O)N[C@@H](CC(C)C)C(=O)N[C@@H](CCC(=O)O)C(=O)NCC(=O)NCC(=O)N1CCC[C@H]1C(=O)N[C@@H](CO)C(=O)N[C@@H](CO)C(=O)NCC(=O)N[C@@H](C)C(=O)N1CCC[C@H]1C(=O)N1CCC[C@H]1C(=O)N1CCC[C@H]1C(=O)N[C@@H](CO)C(N)=O)C(C)C` [Compound No. 18] (H-Y[Aib]HGTFTSDYSIYLEK([εLys-εLys-γGlu-C20 diacid])QAA[Aib]EFVQWLLEGGPSSGAPPPS-NH2) gave an EC50 of 7.1 pM.
With `CC[C@H](C)[C@H](NC(=O)[C@H](CO)NC(=O)[C@H](Cc1ccc(O)cc1)NC(=O)[C@H](CC(=O)O)NC(=O)[C@H](CO)NC(=O)[C@@H](NC(=O)[C@H](Cc1ccccc1)NC(=O)[C@@H](NC(=O)CNC(=O)[C@H](Cc1c[nH]cn1)NC(=O)C(C)(C)NC(=O)[C@@H](N)Cc1c[nH]cn1)[C@@H](C)O)[C@@H](C)O)C(=O)N[C@@H](CC(C)C)C(=O)N[C@@H](CC(C)C)C(=O)N[C@@H](CCC(=O)O)C(=O)N[C@@H](CCCCNC(=O)[C@@H](N)CCCCNC(=O)[C@@H](N)CCCCNC(=O)CC[C@H](NC(=O)CCCCCCCCCCCCCCCCC(=O)O)C(=O)O)C(=O)N[C@@H](CCC(N)=O)C(=O)N[C@@H](C)C(=O)N[C@@H](C)C(=O)N[C@@H](CCC(=O)O)C(=O)N[C@@H](CCC(=O)O)C(=O)N[C@@H](Cc1ccccc1)C(=O)N[C@H](C(=O)N[C@@H](CCC(N)=O)C(=O)N[C@@H](Cc1c[nH]c2ccccc12)C(=O)N[C@@H](CC(C)C)C(=O)N[C@@H](CC(C)C)C(=O)N[C@@H](CCC(=O)O)C(=O)NCC(=O)NCC(=O)N1CCC[C@H]1C(=O)N[C@@H](CO)C(=O)N[C@@H](CO)C(=O)NCC(=O)N[C@@H](C)C(=O)N1CCC[C@H]1C(=O)N1CCC[C@H]1C(=O)N1CCC[C@H]1C(=O)N[C@@H](CO)C(=O)O)C(C)C` [Compound No. 51] (H-H[Aib]HGTFTSDYSILLEK([εLys-εLys-γGlu-C18 diacid])QAAEEFVQWLLEGGPSSGAPPPS-OH) the EC50 was 1.8 pM.
Work on `CC(C)C[C@H](NC(=O)[C@H](CC(C)C)NC(=O)[C@H](Cc1c[nH]c2ccccc12)NC(=O)[C@H](CCC(N)=O)NC(=O)[C@@H](NC(=O)[C@H](Cc1ccccc1)NC(=O)[C@H](CCC(=O)O)NC(=O)C(C)(C)NC(=O)[C@H](C)NC(=O)[C@H](Cc1ccc(O)cc1)NC(=O)[C@H](CCC(N)=O)NC(=O)[C@H](CCCCNC(=O)[C@@H](N)CCCCNC(=O)[C@@H](N)CCCCNC(=O)CC[C@H](NC(=O)CCCCCCCCCCCCCCCCCCC(=O)O)C(=O)O)NC(=O)[C@H](CCC(=O)O)NC(=O)[C@H](CC(C)C)NC(=O)[C@H](Cc1ccc(O)cc1)NC(=O)[C@H](Cc1ccc(O)cc1)NC(=O)[C@H](CO)NC(=O)[C@H](Cc1ccc(O)cc1)NC(=O)[C@H](CC(=O)O)NC(=O)[C@H](CO)NC(=O)[C@@H](NC(=O)[C@H](Cc1ccccc1)NC(=O)[C@@H](NC(=O)CNC(=O)[C@H](Cc1c[nH]cn1)NC(=O)C(C)(C)NC(=O)[C@@H](N)Cc1c[nH]cn1)[C@@H](C)O)[C@@H](C)O)C(C)C)C(=O)N[C@@H](CCC(=O)O)C(=O)NCC(=O)NCC(=O)N1CCC[C@H]1C(=O)N[C@@H](CO)C(=O)N[C@@H](CO)C(=O)NCC(=O)N[C@@H](C)C(=O)N1CCC[C@H]1C(=O)N1CCC[C@H]1C(=O)N1CCC[C@H]1C(=O)N[C@@H](CO)C(N)=O` [Compound No. 29] (H-H[Aib]HGTFTSDYSYYLEK([εLys-εLys-γGlu-C20 diacid])QYA[Aib]EFVQWLLEGGPSSGAPPPS-NH2) yielded an EC50 of 7.2 pM.
